Values of other authors, collected in publication PMC3226709 (Journal of the American Chemical Society, 2011).

Test system: GSTO1
Conditions: read-out: IC50 for GSTO1 inhibition

## CC(=O)Oc1ccc2c(c1)Oc1cc(OC(C)=O)ccc1C21OC(=O)c2cc(CCl)ccc21 [CellTracker Green, 5-chloromethylfluorescein diacetate]
  IC50: 51 nM
